Measurements from US20220170081A1, “METHOD FOR DETECTING TARGET NUCLEIC ACID AND KIT” (CANON KABUSHIKI KAISHA, priority 2020, published 2022).

Tests used:
[1] = pH of binding buffer when amino compounds were added; format: physicochemical; details: FIG. 11
Experimental: Change in the pH when the concentration of each of spermidine·3HCl, spermine, and 1,3-diaminopropane added to binding buffer was changed was evaluated. Binding buffer was used for a reaction buffer.

EnGen Lba Cas12a (Cpf1) = test: Experiment of cleavage activity of Cas12a (trans-cleavage of fluorescent reporter molecule); format: biochemical; details: for rising of fluorescence compared with no addition: addition concentration 12 mM; for addition concentration at which an effect of facilitating the reaction was observed: concentration changed between 0 to 12 mM, FIGS. 4A to 4E
Experimental: (§1) Thereafter, in a 96-well plate (137101, Thermo Fisher Scientific), binding buffer, various additives, a reporter molecule, and water were added, the total volume was adjusted to 80 μL, and the fluorescence intensity was measured every 2 min at 37° C. for 1 to 2 hours by using a fluorescent plate reader Synergy MX (BioTec). Regarding the measurement wavelength, for HiLyte488, an excitation wavelength of 485±20 nm and a fluorescence wavelength of 528±20 nm were used. For the IDT reporter, an excitation wavelength of 535±20 nm and a fluorescence wavelength of 595±20 nm were used. For a reporter marked with Cy5 or Alexa Fluor 647, an excitation wavelength of 620±20 nm and a fluorescence wavelength of 680±20 nm were used.
FIGS. 1A and 1B illustrate a change over time in the ratio of the fluorescence intensity of the IDT reporter to the fluorescence intensity of an internal standard dye Hilyte488.

[2] = molecular target: Alt-R A.s. Cas12a (Cpf1) Nuclease V3 (Acidaminococcus sp., UniProt U2UMQ6); details: spermine 2.0 mM; NEBuffer 2.1; various concentrations of Tween 20 and BSA; FIG. 2A
Experimental: as §1, with “A ternary complex was formed by mixing 400-nM Cas12a, 500-nM crRNA, and a predetermined concentration of target DNA at a volume ratio of 1:1:2 and performing incubation at 37° C. for 30 to 60 minutes. Thereafter,” for “Thereafter,”

[3] = molecular target: Alt-R A.s. Cas12a (Cpf1) Ultra (Acidaminococcus sp., UniProt U2UMQ6, F870L/M537R); details: spermine 2.0 mM; NEBuffer 2.1; various concentrations of Tween 20 and BSA; FIG. 2B
Experimental: as §1, with “A ternary complex was formed by mixing 400-nM Cas12a, 500-nM crRNA, and a predetermined concentration of target DNA at a volume ratio of 1:1:2 and performing incubation at 37° C. for 30 to 60 minutes. Thereafter,” for “Thereafter,”

| SMILES | change in the pH of binding buffer with addition concentration [1] | rising of fluorescence compared with no addition (EnGen Lba Cas12a (Cpf1)) | addition concentration at which an effect of facilitating the reaction was observed (EnGen Lba Cas12a (Cpf1)) [mM] | effect of amino compound on cleavage reaction of Cas12a (ratio of IDT reporter fluorescence to Hilyte488) (EnGen Lba Cas12a (Cpf1); 2.0 mM, binding buffer and NEBuffer 2.1, 0.5% Tween 20 + 0.3% BSA or 1.5% Tween + 0.6% BSA, 1 nM target DNA) | effect on cleavage reaction with respect to ten types of reporter molecules (EnGen Lba Cas12a (Cpf1); 2.0 mM, binding buffer, all reporter molecules of Table 1, FIG. 3B) | effect of facilitating the reaction (EnGen Lba Cas12a (Cpf1); 7.8 mM (FIG. 5A) or 1.4 mM (FIGS. 5B and 5C), binding buffer, IDT reporter) | cleavage activity against the reporter molecule depending on timing of addition of amino compound (EnGen Lba Cas12a (Cpf1); final 2.0 mM, conditions 1 to 6, binding buffer, FIGS. 9A to 9C) | effect of amino compound on cleavage reaction (EnGen Lba Cas12a (Cpf1); spermine 2.0 mM, NEBuffer 2.1, various concentrations of Tween 20 and BSA, FIG. 2C) | effect of amino compound on cleavage reaction [2] | effect of amino compound on cleavage reaction [3] |
| --- | --- | --- | --- | --- | --- | --- | --- | --- | --- | --- |
| NCCCN [1,3-diaminopropane] | the pH increased with increasing the addition concentration | – | – | – | – | – | – | – | – | – |
| NCCCCNCCCN [spermidine] | – | the rising of fluorescence equivalent to that in the instance of no addition | ≥ 0.2 | – | – | – | – | – | – | – |
| Cl.Cl.Cl.NCCCCNCCCN [spermidine·3HCl, spermidine trihydrochloride] | the pH hardly changed | – | – | – | – | – | – | – | – | – |
| NCCCNCCCCNCCCN [spermine] | the pH increased with increasing the addition concentration | the rising of fluorescence was reduced compared with the instance of no addition | ≤ 7.8 | facilitated the reaction | the effect of facilitating the reaction by addition of the amino compound was ascertained | a high effect of facilitating the reaction | higher under condition 2, condition 4, and condition 6 | the reaction was facilitated | the reaction was facilitated | the reaction was facilitated |
